Measurements as given in the supplement of paper PMC10733146.

Key:
Experiment in all cases: viability relative to DMSO control (fraction); higher = less drug effect (more viable cells)
Settings in all cases: 48 h
Palbociclib = compound: CC(=O)c1c(C)c2cnc(Nc3ccc(N4CCNCC4)cn3)nc2n(C2CCCC2)c1=O [Palbociclib]
Outline: (§1)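 Viability was measured as CellTiter-Glo luminescence relative to the median of 16 inner DMSO wells. Primary mononuclear tumour cells, fresh or cryopreserved, were Ficoll-isolated from blood or bone marrow or taken from processed lymph node. They were seeded at 4 × 10^4 cells per well into 384-well plates holding pre-plated compounds at five concentrations, one well each, and kept in RPMI-1640 with penicillin/streptomycin, L-glutamine and human serum at 37 °C and 5% CO2 for 48 h.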

Navitoclax = compound: CC1(C)CCC(c2ccc(Cl)cc2)=C(CN2CCN(c3ccc(C(=O)NS(=O)(=O)c4ccc(N[C@H](CCN5CCOCC5)CSc5ccccc5)c(S(=O)(=O)C(F)(F)F)c4)cc3)CC2)C1 [Navitoclax]
Outline: as §1

Barasertib = compound: CCN(CCCOc1ccc2c(Nc3cc(CC(=O)Nc4cccc(F)c4)[nH]n3)ncnc2c1)CCOP(=O)(O)O [Barasertib]
Outline: as §1

I-BET-762 = compound: CCNC(=O)C[C@@H]1N=C(c2ccc(Cl)cc2)c2cc(OC)ccc2-n2c(C)nnc21 [I-BET-762]
Outline: as §1

Roscovitine = compound: CC[C@H](CO)Nc1nc(NCc2ccccc2)c2ncn(C(C)C)c2n1 [Roscovitine]
Outline: as §1

Etoposide = compound: COc1cc([C@@H]2c3cc4c(cc3[C@@H](O[C@@H]3O[C@@H]5CO[C@@H](C)O[C@H]5[C@H](O)[C@H]3O)[C@H]3COC(=O)[C@H]23)OCO4)cc(OC)c1O [Etoposide]
Outline: as §1

Duvelisib = compound: C[C@H](Nc1ncnc2nc[nH]c12)c1cc2cccc(Cl)c2c(=O)n1-c1ccccc1 [Duvelisib]
Outline: as §1

Bendamustine = compound: Cn1c(CCCC(=O)O)nc2cc(N(CCCl)CCCl)ccc21 [Bendamustine]
Outline: as §1

Pomalidomide = compound: Nc1cccc2c1C(=O)N(C1CCC(=O)NC1=O)C2=O [Pomalidomide]
Outline: as §1

Selinexor = compound: O=C(/C=C\n1cnc(-c2cc(C(F)(F)F)cc(C(F)(F)F)c2)n1)NNc1cnccn1 [Selinexor]
Outline: as §1

[1] = compound: O=C(NO)c1cccc(C(=O)NCCc2ccccc2)c1
Outline: as §1

[2] = compound: O=C(Nc1ccc2[nH]nc(-c3ccncc3)c2c1)[C@@H]1CCN(CC(=O)N2CCN(c3ccc(-c4ncccn4)cc3)CC2)C1
Outline: as §1

Filgotinib = compound: O=C(Nc1nc2cccc(-c3ccc(CN4CCS(=O)(=O)CC4)cc3)n2n1)C1CC1 [Filgotinib]
Outline: as §1

Chlorambucil = compound: O=C(O)CCCc1ccc(N(CCCl)CCCl)cc1 [Chlorambucil]
Outline: as §1

Thalidomide = compound: O=C1CCC(N2C(=O)c3ccccc3C2=O)C(=O)N1 [Thalidomide]
Outline: as §1

## primary AML patient cells (S089)
Palbociclib; 0.024 µM
  viability: 0.794
Palbociclib; 0.12 µM
  viability: 0.871
Palbociclib; 0.6 µM
  viability: 0.604
Palbociclib; 3 µM
  viability: 0.722
Palbociclib; 15 µM
  viability: 0.0784
Navitoclax; 0.0032 µM
  viability: 1.02
Navitoclax; 0.016 µM
  viability: 0.783
Navitoclax; 0.08 µM
  viability: 0.957
Navitoclax; 0.4 µM
  viability: 0.685
Navitoclax; 2 µM
  viability: 0.521
Barasertib; 0.0008 µM
  viability: 1.08
Barasertib; 0.004 µM
  viability: 1.06
Barasertib; 0.02 µM
  viability: 0.725
Barasertib; 0.1 µM
  viability: 0.701
Barasertib; 0.5 µM
  viability: 0.735
I-BET-762; 0.008 µM
  viability: 0.972
I-BET-762; 0.04 µM
  viability: 0.928
I-BET-762; 0.2 µM
  viability: 0.863
I-BET-762; 1 µM
  viability: 0.621
I-BET-762; 5 µM
  viability: 0.391
Roscovitine; 0.032 µM
  viability: 0.621
Roscovitine; 0.16 µM
  viability: 0.991
Roscovitine; 0.8 µM
  viability: 0.635
Roscovitine; 4 µM
  viability: 1.1
Roscovitine; 20 µM
  viability: 0.388
Etoposide; 0.032 µM
  viability: 1.14
Etoposide; 0.16 µM
  viability: 0.998
Etoposide; 0.8 µM
  viability: 0.998
Etoposide; 4 µM
  viability: 0.951
Etoposide; 20 µM
  viability: 0.668
Duvelisib; 0.0016 µM
  viability: 0.607
Duvelisib; 0.008 µM
  viability: 0.669
Duvelisib; 0.04 µM
  viability: 0.615
Duvelisib; 0.2 µM
  viability: 0.543
Duvelisib; 1 µM
  viability: 0.537
Bendamustine; 0.032 µM
  viability: 0.913
Bendamustine; 0.16 µM
  viability: 0.995
Bendamustine; 0.8 µM
  viability: 1.01
Bendamustine; 4 µM
  viability: 1.05
Bendamustine; 20 µM
  viability: 0.855
Pomalidomide; 0.0032 µM
  viability: 0.815
Pomalidomide; 0.016 µM
  viability: 0.669
Pomalidomide; 0.08 µM
  viability: 0.639
Pomalidomide; 0.4 µM
  viability: 0.665
Pomalidomide; 2 µM
  viability: 0.644
Selinexor; 0.008 µM
  viability: 0.73
Selinexor; 0.04 µM
  viability: 0.784
Selinexor; 0.2 µM
  viability: 0.559
Selinexor; 1 µM
  viability: 0.389
Selinexor; 5 µM
  viability: 0.216
[1]; 0.024 µM
  viability: 0.882
[1]; 0.12 µM
  viability: 0.862
[1]; 0.6 µM
  viability: 0.713
[1]; 3 µM
  viability: 0.657
[1]; 15 µM
  viability: 0.693
[2]; 0.008 µM
  viability: 0.643
[2]; 0.04 µM
  viability: 0.593
[2]; 0.2 µM
  viability: 0.543
[2]; 1 µM
  viability: 0.515
[2]; 5 µM
  viability: 0.47
Filgotinib; 0.024 µM
  viability: 0.778
Filgotinib; 0.12 µM
  viability: 0.938
Filgotinib; 0.6 µM
  viability: 0.846
Filgotinib; 3 µM
  viability: 0.752
Filgotinib; 15 µM
  viability: 0.278
Chlorambucil; 0.032 µM
  viability: 0.996
Chlorambucil; 0.16 µM
  viability: 1.04
Chlorambucil; 0.8 µM
  viability: 1
Chlorambucil; 4 µM
  viability: 0.957
Chlorambucil; 20 µM
  viability: 0.724
Thalidomide; 0.032 µM
  viability: 0.948
Thalidomide; 0.16 µM
  viability: 0.951
Thalidomide; 0.8 µM
  viability: 0.93
Thalidomide; 4 µM
  viability: 0.803
Thalidomide; 20 µM
  viability: 0.952

## primary B-PLL patient cells (S016)
Palbociclib; 0.024 µM
  viability: 0.982
Palbociclib; 0.12 µM
  viability: 0.886
Palbociclib; 0.6 µM
  viability: 0.89
Palbociclib; 3 µM
  viability: 0.625
Palbociclib; 15 µM
  viability: 0.457
Navitoclax; 0.0032 µM
  viability: 1.16
Navitoclax; 0.016 µM
  viability: 1.14
Navitoclax; 0.08 µM
  viability: 0.767
Navitoclax; 0.4 µM
  viability: 0.158
Navitoclax; 2 µM
  viability: 0.0503
Barasertib; 0.0008 µM
  viability: 0.883
Barasertib; 0.004 µM
  viability: 0.984
Barasertib; 0.02 µM
  viability: 0.962
Barasertib; 0.1 µM
  viability: 1.01
Barasertib; 0.5 µM
  viability: 1.03
I-BET-762; 0.008 µM
  viability: 1.01
I-BET-762; 0.04 µM
  viability: 0.976
I-BET-762; 0.2 µM
  viability: 0.992
I-BET-762; 1 µM
  viability: 0.918
I-BET-762; 5 µM
  viability: 0.639
Roscovitine; 0.032 µM
  viability: 0.927
Roscovitine; 0.16 µM
  viability: 1.05
Roscovitine; 0.8 µM
  viability: 1.02
Roscovitine; 4 µM
  viability: 1.23
Roscovitine; 20 µM
  viability: 1.09
Etoposide; 0.032 µM
  viability: 1.14
Etoposide; 0.16 µM
  viability: 0.886
Etoposide; 0.8 µM
  viability: 0.762
Etoposide; 4 µM
  viability: 0.362
Etoposide; 20 µM
  viability: 0.0933
Duvelisib; 0.0016 µM
  viability: 0.788
Duvelisib; 0.008 µM
  viability: 0.821
Duvelisib; 0.04 µM
  viability: 0.708
Duvelisib; 0.2 µM
  viability: 0.675
Duvelisib; 1 µM
  viability: 0.674
Bendamustine; 0.032 µM
  viability: 0.965
Bendamustine; 0.16 µM
  viability: 0.953
Bendamustine; 0.8 µM
  viability: 1.04
Bendamustine; 4 µM
  viability: 0.864
Bendamustine; 20 µM
  viability: 0.496
Pomalidomide; 0.0032 µM
  viability: 1.17
Pomalidomide; 0.016 µM
  viability: 1.3
Pomalidomide; 0.08 µM
  viability: 1.15
Pomalidomide; 0.4 µM
  viability: 0.926
Pomalidomide; 2 µM
  viability: 0.962
Selinexor; 0.008 µM
  viability: 0.949
Selinexor; 0.04 µM
  viability: 0.929
Selinexor; 0.2 µM
  viability: 0.822
Selinexor; 1 µM
  viability: 0.847
Selinexor; 5 µM
  viability: 0.67
[1]; 0.024 µM
  viability: 1.07
[1]; 0.12 µM
  viability: 1.03
[1]; 0.6 µM
  viability: 0.986
[1]; 3 µM
  viability: 1.05
[1]; 15 µM
  viability: 0.896
[2]; 0.008 µM
  viability: 1.02
[2]; 0.04 µM
  viability: 0.919
[2]; 0.2 µM
  viability: 0.953
[2]; 1 µM
  viability: 0.94
[2]; 5 µM
  viability: 0.869
Filgotinib; 0.024 µM
  viability: 0.977
Filgotinib; 0.12 µM
  viability: 1
Filgotinib; 0.6 µM
  viability: 0.977
Filgotinib; 3 µM
  viability: 1.2
Filgotinib; 15 µM
  viability: 0.221
Chlorambucil; 0.032 µM
  viability: 0.939
Chlorambucil; 0.16 µM
  viability: 0.916
Chlorambucil; 0.8 µM
  viability: 0.933
Chlorambucil; 4 µM
  viability: 0.601
Chlorambucil; 20 µM
  viability: 0.088
Thalidomide; 0.032 µM
  viability: 0.947
Thalidomide; 0.16 µM
  viability: 0.931
Thalidomide; 0.8 µM
  viability: 1.04
Thalidomide; 4 µM
  viability: 1.05
Thalidomide; 20 µM
  viability: 1.04

## primary AML patient cells (S056)
Palbociclib; 0.024 µM
  viability: 0.981
Palbociclib; 0.12 µM
  viability: 0.945
Palbociclib; 0.6 µM
  viability: 0.551
Palbociclib; 3 µM
  viability: 0.511
Palbociclib; 15 µM
  viability: 0.169
Navitoclax; 0.0032 µM
  viability: 0.818
Navitoclax; 0.016 µM
  viability: 0.547
Navitoclax; 0.08 µM
  viability: 0.515
Navitoclax; 0.4 µM
  viability: 0.182
Navitoclax; 2 µM
  viability: 0.0463
Barasertib; 0.0008 µM
  viability: 0.82
Barasertib; 0.004 µM
  viability: 1.33
Barasertib; 0.02 µM
  viability: 0.68
Barasertib; 0.1 µM
  viability: 0.551
Barasertib; 0.5 µM
  viability: 0.431
I-BET-762; 0.008 µM
  viability: 0.739
I-BET-762; 0.04 µM
  viability: 0.991
I-BET-762; 0.2 µM
  viability: 0.927
I-BET-762; 1 µM
  viability: 0.461
I-BET-762; 5 µM
  viability: 0.201
Roscovitine; 0.032 µM
  viability: 0.781
Roscovitine; 0.16 µM
  viability: 0.741
Roscovitine; 0.8 µM
  viability: 0.743
Roscovitine; 4 µM
  viability: 0.627
Roscovitine; 20 µM
  viability: 0.302
Etoposide; 0.032 µM
  viability: 0.875
Etoposide; 0.16 µM
  viability: 0.948
Etoposide; 0.8 µM
  viability: 0.714
Etoposide; 4 µM
  viability: 0.598
Etoposide; 20 µM
  viability: 0.392
Duvelisib; 0.0016 µM
  viability: 1.02
Duvelisib; 0.008 µM
  viability: 0.696
Duvelisib; 0.04 µM
  viability: 0.852
Duvelisib; 0.2 µM
  viability: 0.737
Duvelisib; 1 µM
  viability: 0.686
Bendamustine; 0.032 µM
  viability: 1.02
Bendamustine; 0.16 µM
  viability: 0.816
Bendamustine; 0.8 µM
  viability: 1.06
Bendamustine; 4 µM
  viability: 0.779
Bendamustine; 20 µM
  viability: 0.878
Pomalidomide; 0.0032 µM
  viability: 0.921
Pomalidomide; 0.016 µM
  viability: 0.823
Pomalidomide; 0.08 µM
  viability: 0.967
Pomalidomide; 0.4 µM
  viability: 0.791
Pomalidomide; 2 µM
  viability: 0.908
Selinexor; 0.008 µM
  viability: 0.787
Selinexor; 0.04 µM
  viability: 0.685
Selinexor; 0.2 µM
  viability: 0.5
Selinexor; 1 µM
  viability: 0.435
Selinexor; 5 µM
  viability: 0.324
[1]; 0.024 µM
  viability: 1.1
[1]; 0.12 µM
  viability: 1.17
[1]; 0.6 µM
  viability: 0.856
[1]; 3 µM
  viability: 0.894
[1]; 15 µM
  viability: 0.596
[2]; 0.008 µM
  viability: 0.673
[2]; 0.04 µM
  viability: 0.609
[2]; 0.2 µM
  viability: 0.527
[2]; 1 µM
  viability: 0.455
[2]; 5 µM
  viability: 0.337
Filgotinib; 0.024 µM
  viability: 1.08
Filgotinib; 0.12 µM
  viability: 0.965
Filgotinib; 0.6 µM
  viability: 0.78
Filgotinib; 3 µM
  viability: 0.376
Filgotinib; 15 µM
  viability: 0.391
Chlorambucil; 0.032 µM
  viability: 1.13
Chlorambucil; 0.16 µM
  viability: 1.03
Chlorambucil; 0.8 µM
  viability: 1.04
Chlorambucil; 4 µM
  viability: 0.942
Chlorambucil; 20 µM
  viability: 0.287
Thalidomide; 0.032 µM
  viability: 0.911
Thalidomide; 0.16 µM
  viability: 0.998
Thalidomide; 0.8 µM
  viability: 0.991
Thalidomide; 4 µM
  viability: 0.809
Thalidomide; 20 µM
  viability: 0.693
